1 sequence from patent US12297240B2, “Peptide” (Kyoto University, priority 2015, dated 2025) can be followed below.

The subject of experiment [1] is ddY mice. Nature of the experiment: Tail suspension test. In kind it is in vivo. As to the method:
(§1) The test was carried out (0 minutes) 30 minutes after administration of a test substance, and the immobility time during the period from 0 to 6 minutes was measured (FIG. 2).
When an antidepressant drug, such as imipramine, is administered, the immobility time is reduced. Thus, when a reduction in the immobility time is observed, it can be evaluated that the test substance has an antidepressant-like effect. Immobility is considered a despair state; therefore, a reduction in the immobility time also serves as an index for improvement of a despair state, i.e., enhancement of motivation.

Experiment [2] concerns ddY mice. Nature of the experiment: Forced swim test. It counts as in vivo. The following applies: 1 mg/kg or more orally; doses tested 0.3, 1 mg/kg (Example 5, FIG. 8). How it is done:
The test was carried out (0 minutes) 30 minutes after administration of a test substance, and the immobility time during the period from 0 to 8 minutes was measured (FIG. 2).
As in the tail suspension test, when an antidepressant drug, such as imipramine, is administered, the immobility time is reduced. Thus, when a reduction in the immobility time is observed, it can be evaluated that the test substance has an antidepressant-like effect. Immobility is considered a despair state; therefore, a reduction in the immobility time also serves as an index for improvement of a despair state, i.e., enhancement of motivation.

Experiment [3] has as its system ddY mice. Nature of the experiment: Elevated plus-maze test (EPM). In kind it is in vivo. The text has this: The elevated plus-maze includes two open arms (25×5 cm) and two closed arms (25×5×15 cm), which are joined to a central platform 50 cm high above the floor (see FIG. 3A). Because the closed arms are surrounded by walls, a mouse can safely walk in the closed arms in spite of the elevated position. On the other hand, because the open arms are not surrounded by walls, a mouse walking along the open arms feels anxious that it may fall from the elevated position. Thus, the more time the mouse spends in the open arms, or the greater the number of entries into the open arms, the less anxious the mouse feels. Thus, the anxiolytic activity is determined based on these indices.
Each mouse was placed on a portion of the central platform facing one of the open arms 30 minutes after the administration, and the test was started. During the 5-minute test time, the cumulative time spent in the open arms (time in open arms), the number of visits to the open arms (visit to open arms), and the total number of visits to any of the arms (total visits) were recorded. The percentage of time spent in the open arms and the percentage of the number of visits to the open arms were calculated as indices of anxiety.

The test system of experiment [4] is ddY mice. Nature of the experiment: Open field test. In kind it is in vivo. As to the method:
Similar to the case of the elevated plus-maze test, the higher the percentage of exploratory behaviors of a mouse in the center portion of a circle, the less anxious the mouse feels. Thus, the anxiolytic activity is determined based on this index.
Each mouse was placed in an open field 30 minutes after the administration, and the test was started. The percentage of exploratory behaviors in the center portion of the circle (the time spent in the center circle (open field) (Time in 12 cm circle) and the percentage of the number of visits to the center circle (Visits in 12 cm circle)) during the 5-minute test time were evaluated.

The subject of experiment [5] is serotonin 5-HT1A, dopamine D1, and GABAA receptors. Kind of experiment: Tail suspension test in combination with receptor antagonists (mechanism of action). It counts as in vivo, mice. As to conditions: 0.3 mg/kg p.o. with WAY100135 10 mg/kg, SCH23390 30 μg/kg or bicuculline 30 mg/kg (Example 8, FIG. 11). As to the method:
as §1
The tail suspension test was performed using mice to which 30 mg/kg of the thermolysin digest of β-CG was orally administered (p.o.) in combination with each of the antagonists of various receptors. Three kinds of antagonists, i.e., WAY100135, which is an antagonist of the serotonin 5-HT1A receptor (dose: 10 mg/kg), SCH23390, which is an antagonist of the dopamine D1 receptor (dose: 30 μg/kg), and bicuculline, which is an antagonist of the GABA-A receptor (dose: 30 mg/kg), were used.
The tail suspension test was performed using mice to which 0.3 mg/kg of the peptide LSSTQAQQSY (SEQ ID NO: 1) was orally administered (p.o.) in combination with each of the antagonists of various receptors. Three kinds of antagonists, i.e., WAY100135, which is an antagonist of the serotonin 5-HT1A receptor (dose: 10 mg/kg), SCH23390, which is an antagonist of the dopamine D1 receptor (dose: 30 μg/kg), and bicuculline, which is an antagonist of the GABA-A receptor (dose: 30 mg/kg), were used.

As for “LSSTQAQQSY (Designed peptide) [10-residue peptide from thermolysin digest of soybean β-conglycinin; synthesized by a standard method]”, the immobility time entry is on record as “significantly reduced” in the experiment on ddY mice [1] (0.3 mg/kg or more orally, doses tested 0.1, 0.3, 1, 3 mg/kg (Example 4, FIG. 7)); “strongest immobility time reducing effect” in the experiment on ddY mice [1] (0.3 mg/kg orally, C-terminal variants (Example 12, FIG. 16)); “strongest immobility time reducing effect” with ddY mice [1] (0.3 mg/kg orally, structure-activity relationships (Example 6, FIG. 9)); “significantly reduced” with ddY mice [2]. In addition, the “percentage of time spent in the open arms” value in the experiment on ddY mice [3] (1 mg/kg orally, doses tested 0.1, 0.3, 1 mg/kg (Example 10, FIG. 14)) was “significantly increased”. The “total number of entries (amount of activities)” value in the experiment with ddY mice [3] (0.1, 0.3 or 1 mg/kg (Example 10, FIG. 14)) is “no significant difference”. In addition, the “number of visits to the center circle (open field)” value with ddY mice [4] (1 mg/kg orally (Example 11, FIG. 15)) is “significantly increased”. For the same sequence, in the experiment with ddY mice [4] (1 mg/kg orally, doses tested 0.1, 0.3, 1 mg/kg (Example 11, FIG. 15)), the “time spent in the center circle (open field)” value is on record as “significantly increased”. The amount of activities entry in the experiment on ddY mice [4] (0.1, 0.3 or 1 mg/kg (Example 11, FIG. 15)) is “no significant difference”. Besides, in experiment [5], the “reduction in the immobility time in combination with antagonists” value is reported as “significantly suppressed”.
